Paper PMC7587356, “High-Throughput Screening for Inhibitors of the SARS-CoV-2 Protease Using a FRET-Biosensor” (Molecules, 2020)
Structures can show the parent of a compound that is named as a salt. Where two headings read alike, the source gives them in different places.

Biological target: SARS-CoV-2 3CLpro (Severe acute respiratory syndrome coronavirus 2, UniProt P0DTD1)
Assay: biochemical
Format: biochemical
Design: Replicate_1 / Replicate_2 / mean / mean (LOPAC_screen_w_protease): unit not given here
Conditions: for inhibition at 5 µM: 4 h
[1] = sheet LOPAC_screen_w_protease, primary screen with protease, 5 µM, mean of two replicates
[2] = sheet LOPAC_screen_w_protease, primary screen with protease, 5 µM, replicate 1
[3] = sheet LOPAC_screen_w_protease, primary screen with protease, 5 µM, replicate 2
[4] = sheet LOPAC_screen_w_protease, primary screen with protease, mean of two replicates
[5] = sheet LOPAC_screen_w_protease, primary screen with protease, replicate 1
[6] = sheet LOPAC_screen_w_protease, primary screen with protease, replicate 2
[7] = sheet LOPAC_screen_w_protease, LOPAC1280 primary screen with protease, 5 µM compound, mean of the two replicates
[8] = sheet LOPAC_screen_w_protease, LOPAC1280 primary screen with protease, 5 µM compound, replicate 1
[9] = sheet LOPAC_screen_w_protease, LOPAC1280 primary screen with protease, 5 µM compound, replicate 2
[10] = LOPAC1280 primary screen with protease, 5 µM compound, replicate 1, read-out: Replicate_1 (LOPAC_screen_w_protease)
[11] = LOPAC1280 primary screen with protease, 5 µM compound, replicate 2, read-out: Replicate_2 (LOPAC_screen_w_protease)
[12] = LOPAC1280 primary screen with protease, 5 µM compound, mean of two replicates

SMILES: C[N+]1(C)C2CCC1CC(OC(=O)c1c[nH]c3ccccc13)C2.[I-] (stereo not drawn)
- mean (sheet LOPAC_screen_w_protease, primary screen of LOPAC1280 at 5 µM with protease, mean of the two replicates): 3.717
- Replicate_1 (sheet LOPAC_screen_w_protease, primary screen of LOPAC1280 at 5 µM with protease, replicate 1): 3.9921
- Replicate_2 (sheet LOPAC_screen_w_protease, primary screen of LOPAC1280 at 5 µM with protease, replicate 2): 3.441

SMILES: Br.C[N+](C)(C)CCCCCNCC12CC3CC(CC(C3)C1)C2.[Br-] [IEM-1460]
- mean [1]: 0.3994
- Replicate_1 [2]: 0.5263
- Replicate_2 [3]: 0.2724

SMILES: Cl.O[Si](CCCN1CCCCC1)(c1ccc(F)cc1)C1CCCCC1 (stereo not drawn)
- mean (sheet LOPAC_screen_w_protease, LOPAC1280 at 5 µM, mean of two replicates): 1.239
- Replicate_1 (sheet LOPAC_screen_w_protease, LOPAC1280 at 5 µM, replicate 1): 2.5476
- Replicate_2 (sheet LOPAC_screen_w_protease, LOPAC1280 at 5 µM, replicate 2): -0.06894

SMILES: O=C1N(c2ccccc2)c2ccccc2C1(Cc1ccncc1)Cc1ccncc1 [Linopirdine]
- inhibition at 5 µM (sheet LOPAC_screen_w_protease, LOPAC1280 primary screen with protease, 5 µM compound, mean of the two replicates, read-out: mean): 4.8%
- inhibition at 5 µM (sheet LOPAC_screen_w_protease, LOPAC1280 primary screen with protease, 5 µM compound, replicate 1, read-out: Replicate_1): 4.31%
- inhibition at 5 µM (sheet LOPAC_screen_w_protease, LOPAC1280 primary screen with protease, 5 µM compound, replicate 2, read-out: Replicate_2): 5.29%

SMILES: Cl.O=C(OC1CCN(CCCl)CC1)C(c1ccccc1)c1ccccc1
- mean [4]: 2.3143
- Replicate_1 [5]: 3.423
- Replicate_2 [6]: 1.205

SMILES: O=c1[nH]c2cc(Cl)c(Cl)cc2[nH]c1=O [6,7-Dichloroquinoxaline-2,3-dione]
- mean [7]: 4.331
- Replicate_1 [8]: 5.455
- Replicate_2 [9]: 3.207

SMILES: CCN(CC)CCOC(=O)c1ccc(N)cc1 [Procaine hydrochloride]
- inhibition at 5 µM [10]: 1.06%
- inhibition at 5 µM [11]: 1.81%
- mean (LOPAC_screen_w_protease) [12]: 1.433

SMILES: N[C@@H](Cn1ccc(=O)[nH]c1=O)C(=O)O [S(-)-Willardiine]
- mean (sheet LOPAC_screen_w_protease, LOPAC1280 primary screen at 5 µM, with protease, mean of the two replicates): 0.8515
- Replicate_1 (sheet LOPAC_screen_w_protease, LOPAC1280 primary screen at 5 µM, with protease, replicate 1): 0.8129
- Replicate_2 (sheet LOPAC_screen_w_protease, LOPAC1280 primary screen at 5 µM, with protease, replicate 2): 0.89

SMILES: CN(C)CCC(c1ccc(Br)cc1)c1ccccn1.O=C(O)/C=C\C(=O)O (racemic) [(±)-Brompheniramine maleate]
- mean (sheet LOPAC_screen_w_protease, primary screen with protease, compound at 5 µM, mean of two replicates): 2.6339
- Replicate_1 (sheet LOPAC_screen_w_protease, primary screen with protease, compound at 5 µM, replicate 1): 2.5605
- Replicate_2 (sheet LOPAC_screen_w_protease, primary screen with protease, compound at 5 µM, replicate 2): 2.707

SMILES: O=P(O)(O)C(Cl)(Cl)P(=O)(O)O [Clodronic acid]
- inhibition at 5 µM [10]: 2.04%
- inhibition at 5 µM [11]: 1.36%
- mean (LOPAC_screen_w_protease) [12]: 1.697

SMILES: CN(C)CCC=C1c2ccccc2CCc2ccccc21 [Amitriptyline hydrochloride]
- inhibition at 5 µM (sheet LOPAC_screen_w_protease, LOPAC1280 primary screen at 5 µM, with protease, mean of the two replicates, read-out: mean): 0.72%
- inhibition at 5 µM (sheet LOPAC_screen_w_protease, LOPAC1280 primary screen at 5 µM, with protease, replicate 1, read-out: Replicate_1): 0.391%
- inhibition at 5 µM (sheet LOPAC_screen_w_protease, LOPAC1280 primary screen at 5 µM, with protease, replicate 2, read-out: Replicate_2): 1.05%

SMILES: CNc1ncnc2c1ncn2[C@H]1C[C@H](OP(=O)(O)O)[C@@H](COP(=O)(O)O)O1 [MRS 2179]
- mean [7]: 4.143
- Replicate_1 [8]: 4.368
- Replicate_2 [9]: 3.917

SMILES: CC(C)(C)NCC(O)c1ccc(O)c(CO)c1 (stereo not drawn) [Salbutamol]
- inhibition at 5 µM (sheet LOPAC_screen_w_protease, LOPAC1280 at 5 µM, mean of two replicates, read-out: mean): 1.09%
- inhibition at 5 µM (sheet LOPAC_screen_w_protease, LOPAC1280 at 5 µM, replicate 1, read-out: Replicate_1): 1.09%
- inhibition at 5 µM (sheet LOPAC_screen_w_protease, LOPAC1280 at 5 µM, replicate 2, read-out: Replicate_2): 1.1%

SMILES: CCN(CC)CCCC(C)Nc1ccnc2cc(Cl)ccc12 (stereo not drawn) [Chloroquine diphosphate]
- inhibition at 5 µM (read-out: Replicate_1): 2.19%
- inhibition at 5 µM (read-out: Replicate_2): 3.74%
- inhibition at 5 µM (read-out: mean): 2.97%

SMILES: CN1C[C@H](C(=O)N[C@]2(C)O[C@@]3(O)[C@@H]4CCCN4C(=O)[C@H](Cc4ccccc4)N3C2=O)C[C@@H]2c3cccc4[nH]cc(c34)C[C@H]21 [Dihydroergotamine methanesulfonate]
- inhibition at 5 µM [10]: 2.09%
- inhibition at 5 µM [11]: 1.52%
- mean (LOPAC_screen_w_protease) (LOPAC1280 primary screen with protease, 5 µM compound, mean of the two replicates): 1.805

SMILES: CNC(=O)Oc1ccc2c(c1)[C@]1(C)CCN(C)[C@@H]1N2C [(-)-Physostigmine]
- inhibition at 5 µM (sheet LOPAC_screen_w_protease, primary screen of LOPAC1280 at 5 µM with protease, mean of the two replicates, read-out: mean): 3.4%
- inhibition at 5 µM (sheet LOPAC_screen_w_protease, primary screen of LOPAC1280 at 5 µM with protease, replicate 1, read-out: Replicate_1): 5.4%
- inhibition at 5 µM (sheet LOPAC_screen_w_protease, primary screen of LOPAC1280 at 5 µM with protease, replicate 2, read-out: Replicate_2): 1.4%

SMILES: C[C@]12CCC(=O)C=C1CC[C@@H]1[C@@H]2CC[C@]2(C)C(=O)CC[C@@H]12 [4-Androstene-3,17-dione]
- inhibition at 5 µM (read-out: Replicate_1): 0.757%
- inhibition at 5 µM (read-out: Replicate_2): 1.66%
- inhibition at 5 µM (read-out: mean): 1.21%

SMILES: O=c1[nH]c2ccccc2c2ccccc12 [6(5H)-Phenanthridinone]
- mean [4]: 2.579
- Replicate_1 [5]: 3.064
- Replicate_2 [6]: 2.0946

SMILES: CC(C)COCC(CN(Cc1ccccc1)c1ccccc1)N1CCCC1 (stereo not drawn) [Bepridil hydrochloride]
- inhibition at 5 µM (read-out: Replicate_1 (LOPAC screen with protease)): 8.81%
- inhibition at 5 µM (read-out: Replicate_2 (LOPAC screen with protease)): 7.08%
- inhibition at 5 µM (read-out: mean (LOPAC screen with protease)): 7.94%

SMILES: CC(C)Oc1cccnc1N(C)C1CCN(Cc2ccccc2)CC1.O=C(O)/C=C\C(=O)O [U-101958 maleate]
- mean [1]: 0.02682
- Replicate_1 [2]: 1.919
- Replicate_2 [3]: -1.865
